Consider one compound from patent US11058676B2, “Quinolinone lysyl oxidase-like 2 inhibitors and uses thereof” (PHARMAKEA, INC., priority 2016, dated 2021).

Structures are written as SMILES.

The assay has as its system C57Bl/6 male mice. Nature of the assay: Mouse oropharyngeal bleomycin model of lung fibrosis. In kind it is in vivo. Conditions: dosed prophylactically at 60 mg/kg p.o. On the procedure:
Example B-3: Mouse Oropharyngeal Bleomycin Model of Lung Fibrosis
Lung fibrosis is induced in C57Bl/6 male mice by administering bleomycin (0.1-4 U/kg) via oropharyngeal instillation. Mice are either pretreated with vehicle or test compound (1 day to 1 hour) orally, intraperitoneally, intravenously or subcutaneously before bleomycin installation (prophylactic dosing) or 7-14 days post bleomycin instillation (therapeutic dosing). The route and frequency of dosing are based on previously determined pharmacokinetic properties for the LOXL2 inhibitor in mouse. After bleomycin instillation animals are monitored daily for weight loss and clinical signs for 14-28 days prior to sacrifice. […] For histological examination, lung slices are stained with Masson's trichrome or Picro-Sirius red to measure cross-linked collagen as an indicator of fibrosis and an Ashcroft score of lung fibrotic and inflammatory damage determined. In addition, immunohistochemistry of fibrotic proteins such as a-smooth muscle actin can be recorded. […] After the acid hydrolysis, 25-100 μl of the supernatant is dried down, resuspended in 25 μl water and the hydroxyproline content determined by the addition of 0.5 ml Chloramine T solution (140 mg Chloramine T in 6.5 ml ddH2O+1 ml n-propanol+2.5 ml 1M sodium acetate) and incubation at room temperature for 20 min. […]

For the compound `NCc1cc(=O)c2cc(Br)ccc2[nH]1` [Compound 1-3, 2-(Aminomethyl)-6-bromoquinolin-4(1H)-one], the “efficacy in mouse oropharyngeal bleomycin model of lung fibrosis” value is given as “efficacious”.
